Assay results: the NIST ThermoML archive (doi:10.1016/j.jct.2016.03.030)
± gives the expanded uncertainty stated by the source.

Test: xn = mol fraction of the nth substance listed
Settings: 100 kPa, Liquid; for viscosity: Falling or rolling sphere viscometry; for mass density: Vibrating tube method

CCC[N+]1(C)CCOCC1.[Br-] [4-methyl-4-propylmorpholinium bromide] + O
Settings	mass density [kg/m3]	viscosity [mPa·s]
298.15 K, x1 = 0.0336	1084.6 ± 1.1	1.651 ± 0.17
298.15 K, x1 = 0.0618	1135.4 ± 1.1	2.638 ± 0.27
298.15 K, x1 = 0.0875	1170.4 ± 1	4.066 ± 0.41
298.15 K, x1 = 0.1298	1213 ± 1	8.208 ± 0.82
298.15 K, x1 = 0.1709	1242.8 ± 1.1	15.89 ± 1.6
298.15 K, x1 = 0.2036	1260.9 ± 1.1	26.67 ± 2.7
298.15 K, x1 = 0.254	1282.4 ± 1.2	62.45 ± 6.3
298.15 K, x1 = 0.2742	1289.4 ± 1.3	90.09 ± 9.2
298.15 K, x1 = 0.3025	1298.2 ± 1.4	154 ± 16
303.15 K, x1 = 0.0336	1082.5 ± 1.1	1.45 ± 0.14
303.15 K, x1 = 0.0618	1132.9 ± 1.1	2.291 ± 0.23
303.15 K, x1 = 0.0875	1167.6 ± 1	3.483 ± 0.35
303.15 K, x1 = 0.1298	1209.9 ± 1	6.823 ± 0.68
303.15 K, x1 = 0.1709	1239.6 ± 1.1	12.9 ± 1.3
303.15 K, x1 = 0.2036	1257.7 ± 1.1	20.98 ± 2.1
303.15 K, x1 = 0.254	1279.2 ± 1.2	46.52 ± 4.7
303.15 K, x1 = 0.2742	1286.1 ± 1.3	66.14 ± 6.7
303.15 K, x1 = 0.3025	1294.9 ± 1.3	108.8 ± 11
308.15 K, x1 = 0.0336	1080.2 ± 1.1	1.281 ± 0.13
308.15 K, x1 = 0.0618	1130.2 ± 1.1	2.002 ± 0.2
308.15 K, x1 = 0.0875	1164.7 ± 1	3 ± 0.3
308.15 K, x1 = 0.1298	1206.8 ± 1	5.723 ± 0.57
308.15 K, x1 = 0.1709	1236.4 ± 1.1	10.62 ± 1.1
308.15 K, x1 = 0.2036	1254.4 ± 1.1	16.76 ± 1.7
308.15 K, x1 = 0.254	1275.9 ± 1.2	35.35 ± 3.6
308.15 K, x1 = 0.2742	1282.8 ± 1.3	49.51 ± 5
308.15 K, x1 = 0.3025	1291.6 ± 1.3	79.28 ± 8
313.15 K, x1 = 0.0336	1077.8 ± 1.1	1.14 ± 0.11
313.15 K, x1 = 0.0618	1127.5 ± 1.1	1.761 ± 0.18
313.15 K, x1 = 0.0875	1161.7 ± 1	2.61 ± 0.26
313.15 K, x1 = 0.1298	1203.6 ± 1	4.854 ± 0.49
313.15 K, x1 = 0.1709	1233.1 ± 1.1	8.847 ± 0.89
313.15 K, x1 = 0.2036	1251.1 ± 1.1	13.62 ± 1.4
313.15 K, x1 = 0.254	1272.6 ± 1.2	27.4 ± 2.8
313.15 K, x1 = 0.2742	1279.5 ± 1.3	38.4 ± 3.9
313.15 K, x1 = 0.3025	1288.3 ± 1.3	59.26 ± 6
318.15 K, x1 = 0.0336	1075.3 ± 1.1	1.02 ± 0.1
318.15 K, x1 = 0.0618	1124.7 ± 1.1	1.559 ± 0.16
318.15 K, x1 = 0.0875	1158.7 ± 1	2.287 ± 0.23
318.15 K, x1 = 0.1298	1200.4 ± 1	4.155 ± 0.42
318.15 K, x1 = 0.1709	1229.9 ± 1.1	7.459 ± 0.75
318.15 K, x1 = 0.2036	1247.8 ± 1.1	11.23 ± 1.1
318.15 K, x1 = 0.254	1269.2 ± 1.2	21.7 ± 2.2
318.15 K, x1 = 0.2742	1276.2 ± 1.3	30.07 ± 3
318.15 K, x1 = 0.3025	1285.1 ± 1.3	45.23 ± 4.5
323.15 K, x1 = 0.0336	1072.3 ± 1.1	0.909 ± 0.091
323.15 K, x1 = 0.0618	1121.8 ± 1.1	1.372 ± 0.14
323.15 K, x1 = 0.0875	1155.7 ± 1	1.988 ± 0.2
323.15 K, x1 = 0.1298	1197.2 ± 1	3.541 ± 0.35
323.15 K, x1 = 0.1709	1226.6 ± 1.1	6.268 ± 0.63
323.15 K, x1 = 0.2036	1244.5 ± 1.1	9.267 ± 0.93
323.15 K, x1 = 0.254	1265.9 ± 1.2	17.23 ± 1.7
323.15 K, x1 = 0.2742	1272.9 ± 1.2	23.66 ± 2.4
323.15 K, x1 = 0.3025	1281.7 ± 1.3	34.94 ± 3.5
328.15 K, x1 = 0.0336	1069.9 ± 1.1	0.812 ± 0.081
328.15 K, x1 = 0.0618	1118.8 ± 1.1	1.215 ± 0.12
328.15 K, x1 = 0.0875	1152.5 ± 1	1.742 ± 0.17
328.15 K, x1 = 0.1298	1193.9 ± 1	3.047 ± 0.31
328.15 K, x1 = 0.1709	1223.2 ± 1.1	5.322 ± 0.53
328.15 K, x1 = 0.2036	1241.1 ± 1.1	7.756 ± 0.78
328.15 K, x1 = 0.254	1262.6 ± 1.2	13.96 ± 1.4
328.15 K, x1 = 0.2742	1269.5 ± 1.2	19.1 ± 1.9
328.15 K, x1 = 0.3025	1278.4 ± 1.3	27.52 ± 2.8
333.15 K, x1 = 0.0336	1066.3 ± 1.1	0.736 ± 0.074
333.15 K, x1 = 0.0618	1115.5 ± 1.1	1.088 ± 0.11
333.15 K, x1 = 0.0875	1149.1 ± 1	1.547 ± 0.15
333.15 K, x1 = 0.1298	1190.6 ± 1	2.654 ± 0.27
333.15 K, x1 = 0.1709	1219.9 ± 1.1	4.582 ± 0.46
333.15 K, x1 = 0.2036	1237.8 ± 1.1	6.587 ± 0.66
333.15 K, x1 = 0.254	1259.2 ± 1.2	11.53 ± 1.2
333.15 K, x1 = 0.2742	1266.2 ± 1.2	15.71 ± 1.6
333.15 K, x1 = 0.3025	1275.1 ± 1.3	22.11 ± 2.2
338.15 K, x1 = 0.0336	1064.5 ± 1.1	0.668 ± 0.067
338.15 K, x1 = 0.0618	1113.1 ± 1.1	0.979 ± 0.098
338.15 K, x1 = 0.0875	1145.3 ± 1	1.378 ± 0.14
338.15 K, x1 = 0.1298	1187.3 ± 1	2.426 ± 0.24
338.15 K, x1 = 0.1709	1216.5 ± 1.1	4.142 ± 0.42
338.15 K, x1 = 0.2036	1234.4 ± 1.1	5.636 ± 0.57
338.15 K, x1 = 0.254	1255.9 ± 1.2	9.633 ± 0.97
338.15 K, x1 = 0.2742	1262.9 ± 1.2	12.97 ± 1.3
338.15 K, x1 = 0.3025	1271.7 ± 1.3	18.05 ± 1.8
343.15 K, x1 = 0.0336	1061.9 ± 1.1	0.63 ± 0.063
343.15 K, x1 = 0.0618	1110.2 ± 1.1	0.925 ± 0.093
343.15 K, x1 = 0.0875	1142 ± 1	1.303 ± 0.13
343.15 K, x1 = 0.1298	1183.9 ± 1	2.269 ± 0.23
343.15 K, x1 = 0.1709	1213.1 ± 1.1	4.062 ± 0.81
343.15 K, x1 = 0.2036	1231 ± 1.1	4.879 ± 0.49
343.15 K, x1 = 0.254	1252.5 ± 1.2	8.213 ± 0.82
343.15 K, x1 = 0.2742	1259.5 ± 1.2	10.96 ± 1.1
343.15 K, x1 = 0.3025	1268.4 ± 1.3	14.99 ± 1.5
